Laboratory results: paper PMC7211203 (European Journal of Drug Metabolism and Pharmacokinetics, 2020)
Marks after values point to notes of the source that are not given here.

Tests used:
CYP3A = conditions: open-label, fixed-sequence study in 16 cancer patients; cited from earlier work
[1] = Safety: adverse events in patients with advanced solid tumors; format: in vivo, human
CYP3A4 [2] = target: T1, CYP3A4 (Homo sapiens, UniProt P08684); conditions: cited from earlier work
[3] = cited from earlier work
[4] = cited from earlier work; remark: listed apart in the source
[5] = phase 1 study; cited from earlier work
CYP3A4 [6] = conditions: ref Eisai, data on file; cited from earlier work
CYP3A4 [7] = target: T1, CYP3A4; conditions: 18 patients with solid tumors, before/after design; cited from earlier work
CYP3A4 [8] = target: T1, CYP3A4; conditions: 18 patients with solid tumors; cited from earlier work
[9] = safety analysis set n = 30, treatment phase

T1 sequence (P08684 whole entry): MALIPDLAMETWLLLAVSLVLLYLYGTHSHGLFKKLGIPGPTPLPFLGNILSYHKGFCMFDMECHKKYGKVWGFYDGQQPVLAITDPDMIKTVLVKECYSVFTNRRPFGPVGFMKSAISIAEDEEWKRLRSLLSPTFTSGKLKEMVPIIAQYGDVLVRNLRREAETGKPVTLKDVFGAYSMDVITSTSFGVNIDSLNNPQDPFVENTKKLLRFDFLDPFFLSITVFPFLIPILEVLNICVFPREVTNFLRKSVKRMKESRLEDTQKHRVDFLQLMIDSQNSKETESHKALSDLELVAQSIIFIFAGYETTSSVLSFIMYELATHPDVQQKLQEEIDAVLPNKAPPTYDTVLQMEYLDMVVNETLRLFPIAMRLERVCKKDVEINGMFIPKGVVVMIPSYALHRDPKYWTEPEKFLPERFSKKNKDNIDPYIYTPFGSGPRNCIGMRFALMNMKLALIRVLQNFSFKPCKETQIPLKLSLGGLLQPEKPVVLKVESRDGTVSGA

CO[C@H]1C[C@@H]2CC[C@@H](C)[C@@](O)(O2)C(=O)C(=O)N2CCCC[C@H]2C(=O)O[C@H]([C@H](C)C[C@@H]2CC[C@@H](OP(C)(C)=O)[C@H](OC)C2)CC(=O)[C@H](C)/C=C(\C)[C@@H](O)[C@@H](OC)C(=O)[C@H](C)C[C@H](C)/C=C/C=C/C=C/1C [Ridaforolimus, ridaforolimus]
Impact on CYP3A (midazolam probe) (CYP3A): minimal inhibitory impact on CYP3A

COc1cc2nccc(Oc3ccc(NC(=O)NC4CC4)c(Cl)c3)c2cc1C(N)=O [lenvatinib]
Grade of treatment-related SAEs ([1]; all treatment-related SAEs): ≤ 3 grade | New AEs in the extension phase ([1]; extension phase (Eisai, data on file)): No new AEs | Patients who died during the treatment phase ([1]; grade 5 TEAE (intestinal obstruction), related to underlying colon cancer): One | Tolerability ([1]; lenvatinib 24 mg once daily, patients with advanced solid tumors): generally well tolerated | Abdominal pain upper: SAEs ([1]; safety analysis set n = 30): 1 (3.3) n (%) | Abdominal pain: SAEs ([1]; safety analysis set n = 30): 2 (6.7) n (%) | Abdominal pain: TEAEs ([1]; safety analysis set n = 30): 3 (10.0) n (%) | Asthenia: SAEs ([1]; safety analysis set n = 30): 1 (3.3) n (%) | Asthenia: TEAEs ([1]; safety analysis set n = 30): 3 (10.0) n (%) | Asthenia: treatment-related AEs ([1]; safety analysis set n = 30): 2 (6.7) n (%) | Bradycardia: SAEs ([1]; safety analysis set n = 30): 1 (3.3) n (%) | Cardiac disorders: SAEs ([1]; safety analysis set n = 30): 2 (6.7) n (%) | Cerebral hemorrhage: SAEs ([1]; safety analysis set n = 30): 1 (3.3) n (%) | Cough: TEAEs ([1]; safety analysis set n = 30): 2 (6.7) n (%) | Diarrhea: TEAEs ([1]; safety analysis set n = 30): 7 (23.3) n (%) | Diarrhea: treatment-related AEs ([1]; safety analysis set n = 30): 3 (10.0) n (%) | Dysphonia: TEAEs ([1]; safety analysis set n = 30): 2 (6.7) n (%) | Dyspnea: SAEs ([1]; safety analysis set n = 30): 1 (3.3) n (%) | Dyspnea: TEAEs ([1]; safety analysis set n = 30): 2 (6.7) n (%) | Fatigue: TEAEs ([1]; safety analysis set n = 30): 8 (26.7) n (%) | Fatigue: treatment-related AEs ([1]; safety analysis set n = 30): 5 (16.7) n (%) | Gastrointestinal disorders: SAEs ([1]; safety analysis set n = 30): 4 (13.3) n (%) | Gastrointestinal disorders: TEAEs ([1]; safety analysis set n = 30): 12 (40.0) n (%) | Gastrointestinal disorders: treatment-related AEs ([1]; safety analysis set n = 30): 6 (20.0) n (%) | General disorders: SAEs ([1]; safety analysis set n = 30): 1 (3.3) n (%) | General disorders: TEAEs ([1]; safety analysis set n = 30): 11 (36.7) n (%) | General disorders: treatment-related AEs ([1]; safety analysis set n = 30): 7 (23.3) n (%) | Headache: TEAEs ([1]; safety analysis set n = 30): 3 (10.0) n (%) | Headache: treatment-related AEs ([1]; safety analysis set n = 30): 2 (6.7) n (%) | Hypertension: SAEs ([1]; safety analysis set n = 30): 3 (10.0) n (%) | Hypertension: TEAEs ([1]; safety analysis set n = 30): 7 (23.3) n (%) | Hypertension: treatment-related AEs ([1]; safety analysis set n = 30): 6 (20.0) n (%) | Nausea: TEAEs ([1]; safety analysis set n = 30): 4 (13.3) n (%) | Nausea: treatment-related AEs ([1]; safety analysis set n = 30): 2 (6.7) n (%) | Nervous system disorders: SAEs ([1]; safety analysis set n = 30): 1 (3.3) n (%) | Nervous system disorders: TEAEs ([1]; safety analysis set n = 30): 5 (16.7) n (%) | Nervous system disorders: treatment-related AEs ([1]; safety analysis set n = 30): 2 (6.7) n (%) | Patient deaths from TEAEs: SAEs ([1]; safety analysis set n = 30): 1 (3.33) n (%) | Pyrexia: SAEs ([1]; safety analysis set n = 30): 1 (3.3) n (%) | Rectal hemorrhage: SAEs ([1]; safety analysis set n = 30): 1 (3.3) n (%) | Respiratory, thoracic, and mediastinal disorders: SAEs ([1]; safety analysis set n = 30): 1 (3.3) n (%) | Respiratory, thoracic, and mediastinal disorders: TEAEs ([1]; safety analysis set n = 30): 8 (26.7) n (%) | Stress cardiomyopathy: SAEs ([1]; safety analysis set n = 30): 1 (3.3) n (%) | Vascular disorders: SAEs ([1]; safety analysis set n = 30): 3 (10.0) n (%) | Vascular disorders: TEAEs ([1]; safety analysis set n = 30): 7 (23.3) n (%) | Vascular disorders: treatment-related AEs ([1]; safety analysis set n = 30): 6 (20.0) n (%) | Vomiting: TEAEs ([1]; safety analysis set n = 30): 2 (6.7) n (%) | Vomiting: treatment-related AEs ([1]; safety analysis set n = 30): 2 (6.7) n (%) | Patients with any TEAEs: SAEs [1, 9]: 10 (33.3) n (%) | Patients with any TEAEs: TEAEs [1, 9]: 26 (86.7) n (%) | Patients with any TEAEs: treatment-related AEs [1, 9]: 17 (56.7) n (%) | Intestinal obstruction: SAEs ([1]; safety analysis set n = 30, this SAE resulted in patient death): 1 (3.3)^c n (%) | Patients who discontinued treatment due to a TEAE ([1]; treatment phase, n = 30): 6.7% | Patients with SAEs considered treatment related ([1]; treatment phase, n = 30): Four | Patients with TEAEs leading to lenvatinib dose modification ([1]; treatment phase, n = 30): 40% | Patients with at least 1 TEAE ([1]; treatment phase, n = 30): 86.7% | Patients with dose reduction ([1]; treatment phase, n = 30): 13.3% | Patients with lenvatinib treatment interruption ([1]; treatment phase, n = 30): 26.7% | SAE abdominal pain, patients ([1]; treatment phase, n = 30): 6.7% | SAE hypertension, patients ([1]; treatment phase, n = 30): 10% | TEAE diarrhea, patients ([1]; treatment phase, n = 30): 23.3% | TEAE fatigue, patients ([1]; treatment phase, n = 30): 26.7% | TEAE hypertension, patients ([1]; treatment phase, n = 30): 23.3% | Treatment-related TEAE diarrhea, patients ([1]; treatment phase, n = 30): 10.0% | Treatment-related TEAE fatigue, patients ([1]; treatment phase, n = 30): 16.7% | Treatment-related TEAE hypertension, patients ([1]; treatment phase, n = 30): 20.0% | Effect on midazolam metabolism in physiologically based pharmacokinetic model (CYP3A4 [2]): negligible effects | Interaction with ketoconazole (inhibitor of CYP3A4) [3]: not clinically significant | tmax ([4]; after dosing): 1 to 4 h | half-life [4]: 28 h | Pharmacokinetic drug–drug interactions in combination with everolimus [5]: no significant pharmacokinetic drug–drug interactions | Action on CYP3A4 (CYP3A4 [6]): weak inducer and time-dependent inhibitor of CYP3A4

CC(C)C[C@H](NC(=O)[C@H](CCc1ccccc1)NC(=O)CN1CCOCC1)C(=O)N[C@@H](Cc1ccccc1)C(=O)N[C@@H](CC(C)C)C(=O)[C@@]1(C)CO1 [carfilzomib]
Effect on the pharmacokinetics of midazolam (CYP3A4 [7]): No clinically significant effects

COC[C@H](NC(=O)c1cnc(C)s1)C(=O)N[C@@H](COC)C(=O)N[C@@H](Cc1ccccc1)C(=O)[C@@]1(C)CO1 [Oprozomib, oprozomib]
CYP3A4 inhibition in patients (midazolam) (CYP3A4 [8]): clinically relevant inhibition was not seen
